Molecules are shown by their SMILES.

A word on the AUC(0-t): it is the area under the concentration-time curve up to a stated or last time point. Broadly, the Cmax is the peak of the concentration-time curve. A word on the clearance: it is the volume of plasma or blood freed of the substance per unit of time. The term half-life denotes the time needed for the level to fall by half in the phase considered. A lower half-life goes with fast loss. The term Tmax denotes the time at which the peak concentration occurs. What is called bioavailability is the share of a dose that reaches the circulation, judged against a reference dose that is usually intravenous. Read a low bioavailability as little systemic uptake.

This data set is described as follows: Pharmacokinetic study in mice, plasma concentrations by LC-MS/MS. How it is done:
Test Example 3. Pharmacokinetic Study for Determining Compound Concentrations in Mice by LC-MS/MS
Principle: LC-MS/MS is used to quantify the plasma concentrations of the test article at successive time points, generating an in-vivo pharmacokinetic profile.
Procedure: The test compound was dissolved in DMSO to prepare a 10 mg/mL stock solution. This stock was further diluted to 1 mg/mL with a vehicle consisting of 10 % DMSO + 10 % Solutol HS-15 + 80 % saline. Male CD-1 mice (JH Laboratory Animal Co., LTD) were employed; six animals were assigned per compound group. […] Serial blood samples (~50 µL whole blood, K2EDTA anticoagulant) were collected at 0.083, 0.25, 0.5, 1, 2, 4, 8 and 24 h (three mice per time point in a crossover design). Blood was centrifuged at 6 000 g for 5 min at 4 °C; plasma was harvested and stored at -70 °C until analysis. Plasma drug concentrations were determined by LC-MS/MS.
Calibration Curve and QC Preparation: Working solutions were prepared by dilution with MeOH:H2O (1:1). For each calibration or QC level, 3 µL of working solution was spiked into 57 µL of blank mouse plasma.
Sample Processing: To 30 µL of plasma was added 200 µL of methanol containing the internal standard (propranolol, 40 ng mL^-1). After vortex-mixing for 1 min, the mixture was centrifuged at 12 000 rpm for 10 min. A 100 µL aliquot of the supernatant was transferred to a clean plate for injection.
Pharmacokinetic Analysis: Concentration-time data were analyzed with WinNonlin 8.2 using a non-compartmental approach to derive PK parameters including Cmax, Tmax, AUC and terminal elimination half-life (t1/2). AUC was calculated by the linear-up/log-down trapezoidal method. Table 3. Pk parameters of compounds

Setting [1] is: male, CD-1, mouse, po, 20 mg/kg.

As to `CC[C@@]1(O)C(=O)OCc2c1cc1n(c2=O)Cc2c-1nc1cc(F)c(C)c3c1c2[C@@H](NC(=O)CO)CC3` [DXd], for the setting “mouse, in vivo, iv, 1 mg/kg”, the exposure AUC(0-t) at 24 h was found to be 154 ng·h/mL, the Cmax turned out to be 455 ng/mL, the clearance is 108 mL/min/kg and the half-life was 9.3 min. Under “mouse, in vivo, po, 10 mg/kg”, the AUC(0-t) at 24 h came to 4.32 ng·h/mL, the concentration peaked (Cmax) at 6.99 ng/mL, the Tmax came to 19.8 min and the half-life is 23.4 min.

In turn, `CC[C@@]1(O)C(=O)OCc2c1cc1n(c2=O)Cc2c-1c(=O)c1cc(F)ccc1n2CCN(C)C1CC1` [Example 97, (S)-11-(2-(cyclopropyl(methyl)amino)ethyl)-4-ethyl-8-fluoro-4-hydroxy-1,12-dihydro-14H-pyrano[3,4:6,7]indolizino[2,1-b]quinoline-3,6,14(4H,11H)-trione] displayed a bioavailability (mouse, in vivo) of 34.5%. Also, for the setting “mouse, in vivo, iv, 1 mg/kg”, the area under the curve AUC(0-t) at 24 h came to 114 ng·h/mL, the Cmax was 256 ng/mL, the clearance turned out to be 146 mL/min/kg and the half-life is 28.9 min. Also, under “mouse, in vivo, po, 10 mg/kg”, the exposure AUC(0-t) at 24 h came out at 395 ng·h/mL, the Cmax was 131 ng/mL, the time to peak (Tmax) stood at 55.2 min and the half-life was 75.6 min.

Under “male, CD-1, mouse”, `CC[C@@]1(O)C(=O)OCc2c1cc1n(c2=O)Cc2c-1c(=O)c1cc(F)ccc1n2[C@@H]1CCN(CCO)C1` [Example 252, (S)-4-ethyl-8-fluoro-4-hydroxy-11-((R)-1-(2-hydroxyethyl)pyrrolidin-3-yl)-1,12-dihydro-14H-pyrano[3',4':6,7]indolizino[2,1-b]quinoline-3,6,14(4H,11H)-trione] registered a bioavailability of 43.1%. For the setting “male, CD-1, mouse, iv, 2 mg/kg”, the exposure AUC(0-t) came to 674 ng·h/mL, the peak level (Cmax) was 558 ng/mL, the clearance came out at 49.2 mL/min/kg and the half-life is 70.2 min. In addition, under setting [1], the AUC(0-t) came to 2820 ng·h/mL, the highest concentration (Cmax) amounted to 680 ng/mL, the time of peak concentration (Tmax) turned out to be 79.8 min and the half-life is 345 min.

Turning to `CCc1c2c(nc3ccc(O)cc13)-c1cc3c(c(=O)n1C2)COC(=O)[C@]3(O)CC` [SN38], for the setting “mouse, iv, 1 mg/kg”, the AUC(0-t) at 24 h was 103 ng·h/mL, the concentration peaked (Cmax) at 278 ng/mL, the clearance is 163 mL/min/kg and the half-life was 34 min. Also, under “mouse, po, 10 mg/kg”, the AUC(0-t) at 24 h is 0.23 ng·h/mL and the Cmax amounted to 1.87 ng/mL.

Values taken from EP4778929A1, “NOVEL TYPE I TOPOISOMERASE INHIBITOR, AND PREPARATION METHOD THEREFOR AND USE THEREOF” (priority 2023, dated 2025).
